Test results taken from patent publication US12516039B2, “N-linked isoquinoline amides as LRRK2 inhibitors, pharmaceutical compositions, and uses thereof” (Merck Sharp & Dohme LLC, priority 2020, dated 2026).

Target: T1, GST-tagged truncated human mutant G2019S LRRK2 (Homo sapiens, UniProt Q5S007, G2019S)
T1 construct: GST-tagged truncated human mutant G2019S LRRK2; purchased Life Technologies Corporation (Carlsbad, CA)
Assay: LRRK2 G2019S Km ATP LanthaScreen assay
Type: biochemical
Details: 134 μM ATP (Km ATP), LRRKtide substrate, mean of several tests, read-out: LRRK2 pIC50 (converted)
Summary of the method: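 GST-tagged truncated human LRRK2 G2019S (1.25 nM enzyme solution) was preincubated 15 min with compound, then reacted 90 min at ambient temperature with fluorescein-LRRKtide (400 nM solution) and 134 μM ATP (Km) in Tris pH 8.5. EDTA stop; Tb anti-phospho-LRRKtide TR-FRET (520/495 ratio). IC50 from 4-parameter fits, mean of several runs.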

T1 sequence (Q5S007 970-2527 G2019S limits assumed): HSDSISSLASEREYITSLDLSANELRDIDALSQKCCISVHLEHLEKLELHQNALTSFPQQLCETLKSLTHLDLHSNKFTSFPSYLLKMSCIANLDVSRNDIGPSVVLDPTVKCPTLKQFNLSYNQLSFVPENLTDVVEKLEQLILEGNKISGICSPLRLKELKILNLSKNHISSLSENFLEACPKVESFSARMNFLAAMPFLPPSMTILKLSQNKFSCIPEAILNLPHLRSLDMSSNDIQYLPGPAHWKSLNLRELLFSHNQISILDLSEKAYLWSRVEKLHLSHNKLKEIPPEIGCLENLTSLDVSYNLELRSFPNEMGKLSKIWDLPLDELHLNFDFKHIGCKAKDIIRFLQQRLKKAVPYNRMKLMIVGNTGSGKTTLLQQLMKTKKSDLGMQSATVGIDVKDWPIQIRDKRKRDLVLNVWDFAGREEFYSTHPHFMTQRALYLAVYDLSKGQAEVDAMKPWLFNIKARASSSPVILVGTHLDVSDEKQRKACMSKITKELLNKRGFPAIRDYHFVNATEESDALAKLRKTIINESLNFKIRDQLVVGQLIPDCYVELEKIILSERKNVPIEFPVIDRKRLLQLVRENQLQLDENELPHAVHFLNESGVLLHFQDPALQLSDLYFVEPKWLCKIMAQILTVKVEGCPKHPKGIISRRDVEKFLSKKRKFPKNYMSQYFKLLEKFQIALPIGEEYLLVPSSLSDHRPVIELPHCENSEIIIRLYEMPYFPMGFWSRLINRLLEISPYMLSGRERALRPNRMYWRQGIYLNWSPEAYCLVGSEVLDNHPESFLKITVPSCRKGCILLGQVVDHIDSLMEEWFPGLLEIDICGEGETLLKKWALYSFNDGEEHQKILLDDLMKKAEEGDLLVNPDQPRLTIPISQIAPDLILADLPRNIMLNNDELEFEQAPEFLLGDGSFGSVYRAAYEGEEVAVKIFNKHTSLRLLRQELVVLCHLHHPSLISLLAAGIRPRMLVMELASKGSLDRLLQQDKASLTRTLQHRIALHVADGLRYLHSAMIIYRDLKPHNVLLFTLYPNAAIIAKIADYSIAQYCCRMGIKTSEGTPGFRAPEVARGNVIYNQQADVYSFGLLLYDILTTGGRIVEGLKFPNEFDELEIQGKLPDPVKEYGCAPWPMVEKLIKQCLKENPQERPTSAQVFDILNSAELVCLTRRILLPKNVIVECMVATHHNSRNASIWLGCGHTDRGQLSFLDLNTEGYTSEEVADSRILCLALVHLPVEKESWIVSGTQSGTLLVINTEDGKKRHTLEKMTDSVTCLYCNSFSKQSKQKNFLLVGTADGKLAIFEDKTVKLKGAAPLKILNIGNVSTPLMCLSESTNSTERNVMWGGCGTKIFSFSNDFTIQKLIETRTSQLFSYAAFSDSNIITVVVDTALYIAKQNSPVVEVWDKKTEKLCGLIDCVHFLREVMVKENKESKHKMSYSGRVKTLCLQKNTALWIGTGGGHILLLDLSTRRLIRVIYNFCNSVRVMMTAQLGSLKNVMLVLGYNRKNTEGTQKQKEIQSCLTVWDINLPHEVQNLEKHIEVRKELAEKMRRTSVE

Structure (SMILES)	IC50
CCC1C(C(=O)Nc2cc3cc(N4CCN(C5(C)COCC5F)CC4)c(Cl)cc3cn2)C1c1ccn(C)n1 (single isomer, unassigned) [Ex-10.51, (1R,2R,3R, 1R,2S,3R, or 1S,2R,3S, or 1S,2S,3S)-N-[7-chloro-6-[4-((3R,4R or 3S,4S)-4-fluoro-3-methyl-tetrahydrofuran-3-yl)piperazin-1-yl]-3-isoquinolyl]-2-ethyl-3-(1-methylpyrazol-3-yl)cyclopropanecarboxamide]	0.0813 nM
CCC1C(C(=O)Nc2cc3cc(N4CCN(C5(C)COCC5F)CC4)c(Cl)cc3cn2)C1c1ccn(C)n1 (single isomer, unassigned) [Ex-10.52, (1R,2R,3R, 1R,2S,3R, or 1S,2R,3S, or 1S,2S,3S)-N-[7-chloro-6-[4-((3R,4R or 3S,4S)-4-fluoro-3-methyl-tetrahydrofuran-3-yl)piperazin-1-yl]-3-isoquinolyl]-2-ethyl-3-(1-methylpyrazol-3-yl)cyclopropanecarboxamide]	0.603 nM
CC1C(C(=O)Nc2cc3cc(N4CCN(C5(C)COCC5O)CC4)c(Cl)cc3cn2)C1c1ccn(C)n1 (single isomer, unassigned) [Ex-10.53, (1R,2R,3R, 1R,2S,3R, or 1S,2R,3S, or 1S,2S,3S)-N-[7-chloro-6-[4-((3R,4R or 3S,4S)-4-hydroxy-3-methyl-tetrahydrofuran-3-yl)piperazin-1-yl]-3-isoquinolyl]-2-methyl-3-(1-methylpyrazol-3-yl)cyclopropanecarboxamide]	0.0813 nM
Cn1ncc(C2CC2C(=O)Nc2cc3cc(N4CCN(C5(C)COCC5F)CC4)c(Cl)cc3cn2)c1C(F)(F)F (single isomer, unassigned) [Ex-10.61, (1R,2R or 1S,2S)-N-[7-chloro-6-[4-((3R,4R or 3S,4S)-4-fluoro-3-methyl-tetrahydrofuran-3-yl)piperazin-4-ium-1-yl]-3-isoquinolyl]-2-[1-methyl-5-(trifluoromethyl)pyrazol-4-yl]cyclopropanecarboxamide]	3.02 nM
Cn1ncc(C2CC2C(=O)Nc2cc3cc(N4CCN(C5(C)COCC5F)CC4)c(Cl)cc3cn2)c1C(F)(F)F (single isomer, unassigned) [Ex-10.62, (1R,2R or 1S,2S)-N-[7-chloro-6-[4-((3R,4R or 3S,4S)-4-fluoro-3-methyl-tetrahydrofuran-3-yl)piperazin-4-ium-1-yl]-3-isoquinolyl]-2-[1-methyl-5-(trifluoromethyl)pyrazol-4-yl]cyclopropanecarboxamide]	0.0813 nM
CCC1C(C(=O)Nc2cc3cc(N4CCN(C5(C)COCC5O)CC4)c(Cl)cc3cn2)C1c1ccn(C)n1 (single isomer, unassigned) [Ex-10.65, (1R,2R,3R, or 1R,2S,3R, or 1S,2R,3S, or 1S,2S,3S)-N-[7-chloro-6-[4-( (3R,4R or 3S,4S)-4-hydroxy-3-methyl-tetrahydrofuran-3-yl)piperazin-1-yl]-3-isoquinolyl]-2-ethyl-3-(1-methylpyrazol-3-yl)cyclopropanecarboxamide]	0.0813 nM
CC1(N2CCN(c3cc4cc(NC(=O)C5CCC5C#N)ncc4cc3Cl)CC2)COCC1F (single isomer, unassigned) [Ex-10.67, (1R,2R or 1S,2S)-N-[7-chloro-6-[4-((3R,4R or 3S,4S)-4-fluoro-3-methyl-tetrahydrofuran-3-yl)piperazin-1-yl]-3-isoquinolyl]-2-cyano-cyclobutanecarboxamide]	0.102 nM
CC1(N2CCN(c3cc4cc(NC(=O)C5CCC5C#N)ncc4cc3Cl)CC2)COCC1F (single isomer, unassigned) [Ex-10.68, (1R,2R or 1S,2S)-N-[7-chloro-6-[4-((3R,4R or 3S,4S)-4-fluoro-3-methyl-tetrahydrofuran-3-yl)piperazin-1-yl]-3-isoquinolyl]-2-cyano-cyclobutanecarboxamide]	0.0813 nM
CC1(N2CCN(c3cc4cc(NC(=O)C5CC5C5CCOCC5)ncc4cc3Cl)CC2)COCC1F (single isomer, unassigned) [Ex-10.69, (1R,2R or 1S,2S)-N-[7-chloro-6-[4-((3R,4R or 3S,3S)-4-fluoro-3-methyl-tetrahydrofuran-3-yl)piperazin-1-yl]-3-isoquinolyl]-2-tetrahydropyran-4-yl-cyclopropanecarboxamide]	0.0813 nM
CC1(N2CCN(c3cc4cc(NC(=O)C5CC5C(F)F)ncc4cc3Cl)CC2)COCC1F (single isomer, unassigned) [Ex-10.75, (1R,2R or 1S,2S)-N-[7-chloro-6-[4-((3R,4R or 3S,4S)-4-fluoro-3-methyl-tetrahydrofuran-3-yl)piperazin-1-yl]-3-isoquinolyl]-2-(difluoromethyl)cyclopropanecarboxamide]	0.219 nM
CC1(N2CCN(c3cc4cc(NC(=O)C5CC5C(F)F)ncc4cc3Cl)CC2)COCC1F (single isomer, unassigned) [Ex-10.76, (1R,2R or 1S,2S)-N-[7-chloro-6-[4-((3R,4R or 3S,4S)-4-fluoro-3-methyl-tetrahydrofuran-3-yl)piperazin-1-yl]-3-isoquinolyl]-2-(difluoromethyl)cyclopropanecarboxamide]	0.0813 nM
CC1(N2CCN(c3cc4cc(NC(=O)C5CC5C(F)F)ncc4cc3Cl)CC2)COCC1F (single isomer, unassigned) [Ex-10.77, (1R,2R or 1S,2S)-N-[7-chloro-6-[4-((3R,4R or 3S,4S)-4-fluoro-3-methyl-tetrahydrofuran-3-yl)piperazin-1-yl]-3-isoquinolyl]-2-(difluoromethyl)cyclopropanecarboxamide]	0.0813 nM
CC1(N2CCN(c3cc4cc(NC(=O)C5CC5C(F)F)ncc4cc3Cl)CC2)COCC1F (single isomer, unassigned) [Ex-10.78, (1R,2R or 1S,2S)-N-[7-chloro-6-[4-((3R,4R or 3S,4S)-4-fluoro-3-methyl-tetrahydrofuran-3-yl)piperazin-1-yl]-3-isoquinolyl]-2-(difluoromethyl)cyclopropanecarboxamide]	0.0813 nM
CC1(N2CCN(c3cc4cc(NC(=O)C5CC56CC6)ncc4cc3Cl)CC2)COCC1F (single isomer, unassigned) [Ex-10.79, (R or S)-N-[7-chloro-6-[4-((3R,4R or 3S,4S)-4-fluoro-3-methyl-tetrahydrofuran-3-yl)piperazin-1-yl]-3-isoquinolyl]spiro[2.2]pentane-2-carboxamide]	0.0813 nM
CC1(N2CCN(c3cc4cc(NC(=O)C5CC56CC6)ncc4cc3Cl)CC2)COCC1F (single isomer, unassigned) [Ex-10.80, (R or S)-N-[7-chloro-6-[4-((3R,4R or 3S,4S)-4-fluoro-3-methyl-tetrahydrofuran-3-yl)piperazin-1-yl]-3-isoquinolyl]spiro[2.2]pentane-2-carboxamide]	0.123 nM
CC1(C2CCOC2)CC1C(=O)Nc1cc2cc(N3CCN(C4(C)COCC4O)CC3)c(Cl)cc2cn1 (single isomer, unassigned) [Ex-10.81, (1R,2R or 1S,2S, or 1R,2S, or 1S,2R)-N-[7-chloro-6-[4-((3R,4R or 3S,4S)-4-hydroxy-3-methyl-tetrahydrofuran-3-yl)piperazin-1-yl]-3-isoquinolyl]-2-methyl-2-tetrahydrofuran-3-yl-cyclopropanecarboxamide]	0.0813 nM
CC1(C2CCOC2)CC1C(=O)Nc1cc2cc(N3CCN(C4(C)COCC4O)CC3)c(Cl)cc2cn1 (single isomer, unassigned) [Ex-10.82, (1R,2R or 1S,2S, or 1R,2S, or 1S,2R)-N-[7-chloro-6-[4-((3R,4R or 3S,4S)-4-hydroxy-3-methyl-tetrahydrofuran-3-yl)piperazin-1-yl]-3-isoquinolyl]-2-methyl-2-tetrahydrofuran-3-yl-cyclopropanecarboxamide]	0.1 nM
CC1(C2CCOC2)CC1C(=O)Nc1cc2cc(N3CCN(C4(C)COCC4O)CC3)c(Cl)cc2cn1 (single isomer, unassigned) [Ex-10.83, (1R,2R or 1S,2S, or 1R,2S, or 1S,2R)-N-[7-chloro-6-[4-((3R,4R or 3S,4S)-4-hydroxy-3-methyl-tetrahydrofuran-3-yl)piperazin-1-yl]-3-isoquinolyl]-2-methyl-2-tetrahydrofuran-3-yl-cyclopropanecarboxamide]	0.525 nM
CC1(C2CCOC2)CC1C(=O)Nc1cc2cc(N3CCN(C4(C)COCC4O)CC3)c(Cl)cc2cn1 (single isomer, unassigned) [Ex-10.84, (1R,2R or 1S,2S, or 1R,2S, or 1S,2R)-N-[7-chloro-6-[4-((3R,4R or 3S,4S)-4-hydroxy-3-methyl-tetrahydrofuran-3-yl)piperazin-1-yl]-3-isoquinolyl]-2-methyl-2-tetrahydrofuran-3-yl-cyclopropanecarboxamide]	0.214 nM
CC1(C2CCOC2)CC1C(=O)Nc1cc2cc(N3CCN(C4(C)COCC4O)CC3)c(Cl)cc2cn1 (single isomer, unassigned) [Ex-10.85, (1R,2R or 1S,2S, or 1R,2S, or 1S,2R)-N-[7-chloro-6-[4-((3R,4R or 3S,4S)-4-hydroxy-3-methyl-tetrahydrofuran-3-yl)piperazin-1-yl]-3-isoquinolyl]-2-methyl-2-tetrahydrofuran-3-yl-cyclopropanecarboxamide]	0.0813 nM
CC1(C2CCOC2)CC1C(=O)Nc1cc2cc(N3CCN(C4(C)COCC4O)CC3)c(Cl)cc2cn1 (single isomer, unassigned) [Ex-10.86, (1R,2R or 1S,2S, or 1R,2S, or 1S,2R)-N-[7-chloro-6-[4-((3R,4R or 3S,4S)-4-hydroxy-3-methyl-tetrahydrofuran-3-yl)piperazin-1-yl]-3-isoquinolyl]-2-methyl-2-tetrahydrofuran-3-yl-cyclopropanecarboxamide]	0.0813 nM
